{"source": "patent US5955578A", "about": "“Polypeptide-polymer conjugates active in wound healing” (La Jolla Cancer Research Foundation, priority 1995, dated 1999)", "key": {"[1]": {"test_system": "full thickness skin incisions", "assay": "Wound tensile strength in rat full thickness dermal incisions", "format": "in vivo, Wistar Furth rats", "description": "Wistar Furth adult male rats (175-250g) were anesthetized by intraperitoneal injection of pentobarbital (60 mg/kg body weight). The rats dorsal area was closely shaved, and each animal was positioned and secured for surgery. Using aseptic technique, five full thickness skin incisions, 1.5 cm long, were made on the dorsal area. Each incision was treated with 0.05-0.10 ml of a blind sample of the peptide RRRRRRGDSPK-conjugated to hyaluronate or with 0.05-0.10 ml of human fibronectin (3 mg/ml in PBS, Colloborative Research, Bedford, Mass.) or rat fibronectin (2 mg/ml in PBS, Telios Pharmaceuticals, San Diego, Calif.) or was left untreated as a control. After treatment, the incisions were closed using standard 4-0 nylon sutures for placement of 5 to 7 interrupted sutures. The rats were returned to their cages for recovery and observation. At post operative days 2 through 7 and 10, six animals were anesthetized as above and were euthanized by an intracardiac injection of 0.5 cc of T-61.\nFollowing euthanasia, the pelt was removed from the rat and 5 mm wide by 2 cm long skin strips bisecting incisions were prepared. Histological specimens from the skin adjacent to the tensile strength strip were also taken. To measure tensile strength, one end of the strip was clipped using a 1 mm Michel Clipper (Militex Instruments Co.) which was tied to a Grass model FTO3C force displacement transducer. The other end of the strip was clipped using a light weight hemostat which was attached to a Harvard Model 901 push-pull infusion pump (Harvard Instruments, Millis, Mass.) using cotton thread over a pulley. The transducer was attached to a Grass polygraph (Model 7D) for recording the results. After calibration, the pump was turned on to pull at the rate of 64 mm/min. The amount of force required to pull the skin apart at the incision was recorded on the polygraph."}, "[2]": {"test_system": "PVA sponges implanted under the skin", "assay": "Polyvinylalcohol sponge implant model", "format": "in vivo, rats", "description": "Peptide-hyaluronate conjugates were tested using the model of Davidson, et al., J. Cell Biol. 100: 1219-1227 (1985), which is incorporated herein by reference. This model involves the implantation of inert PVA sponges loaded with the conjugates or control materials under the skin of rats. The sponges were removed from the animals at 4 to 10 days after implantation and analyzed for cell ingrowth number and type and as collagen content, blood vessel formation (angiogenesis) and inflammatory response, as well as persistence of the conjugate in the wound."}, "[3]": {"test_system": "dry eye condition", "assay": "Dry eye syndrome induced by excision of tear ducts", "format": "in vivo", "settings": "cats; eye drops from day 17 to day 43; conjugate at 100 mg/ml", "description": "The dry eye conditon was induced in six cats on day zero by the excision of tear ducts from the eyes. The cats were divided into two groups and treated as follows:\nGroup one was treated with two drops of human fibronectin, 3 mg/ml, a day twice a day from day 17 to day 34, and two drops a day three times a day from day 34 to 43. Group two was treated with two drops of chondroitin sulfate-peptide conjugate, G(dR)5 G3 (dR)GDSPASSK 100 mg/ml, a day twice a day from days 17 to 34, and two drops a day three times a day from day 34 to day 43."}, "[4]": {"assay": "In vitro assays of the type described in Pierschbacher et al. (1983)", "format": "cell-based"}, "[5]": {"settings": "early time points, effect diminishing at later time points"}}, "note": "Where no end group is shown, it is not given here. [ ]: non-standard residue; d: D form.", "data": [{"substance": "RRRRRRGDSPK-conjugated to hyaluronate: peptide RRRRRRGDSPK coupled to hyaluronic acid by EDC, method of Example II (also: conjugated to hyaluronic acid by EDC)", "values": [{"measurement": "wound strength, % of the strength of untreated wounds", "setting": "[1]; day 5 after incision (maximum effect), 0.05-0.10 ml per incision", "value": 211, "unit": "%"}, {"measurement": "wound strength versus untreated control", "setting": "[1]; days 3 through 7 after incision", "value": "increased"}, {"measurement": "angiogenesis", "setting": "[2]; [5]", "value": "increased"}, {"measurement": "collagen secretion", "setting": "[2]; [5]", "value": "increased"}, {"measurement": "fibroblast migration", "setting": "[2]; [5]", "value": "increased"}, {"measurement": "collagen deposition into the sponges versus control sponges", "setting": "[2]; up to the end of the experiment", "value": "more collagen was continuously deposited"}]}, {"substance": "chondroitin sulfate-peptide conjugate: peptide of Example I, G(dR)5G3(dR)GDSPASSK, coupled to chondroitin sulfate with EDC; 74 mg peptide/g conjugate (G[dR][dR][dR][dR][dR]GGG[dR]GDSPASSK; also: coupled to chondroitin sulfate with EDC)", "values": [{"measurement": "dry eye condition (impression cytology, rose bengal staining)", "setting": "[3]", "value": "marked reduction of the dry eye condition"}]}, {"substance": "conjugates employing the peptide G(dR)5 G3 (dR)GDSPASSK: peptide G(dR)5G3(dR)GDSPASSK coupled to hyaluronic acid with EDC, 20 to 30% peptide by weight (G[dR][dR][dR][dR][dR]GGG[dR]GDSPASSK; also: coupled to hyaluronic acid with EDC)", "values": [{"measurement": "wound strength, % of control", "setting": "[1]; day 2", "value": 160, "unit": "%"}, {"measurement": "wound strength activity versus control (persistence)", "setting": "[1]; through day 10", "value": "greater than control"}, {"measurement": "in vitro activity compared with the conjugate of Example V", "setting": "[4]", "value": "more activity than the RGGDSPK peptide conjugate"}]}]}
